Assays:
[1] = Adduct formation of SANA with β-mercaptoethanol, followed spectrophotometrically (UV-visible); format: physicochemical; conditions: pH 7.4, BME 1 mM, scans every min up to 15 min
Method: (§1) UV-visible spectra was acquired by a Varian Cary 50 Bio. Scans were taken every min up to 15 min.

[2] = Adduct formation of SANA with glutathione, followed spectrophotometrically (UV-visible); format: physicochemical; conditions: pH 7.4, GSH 1 mM, scans every min up to 15 min
Method: as §1

[3] = Stopped-flow kinetic measurement of the reaction with BME; format: physicochemical; conditions: 25 μM, BME 0.54-2.73 mM, absorbance at 260 nm, 25° C., triplicate, slope of pseudo first order constants vs BME
Method: In FIG. 2, it is shown that the reaction between SANA and BME was determined to be a second order rate constant. Stopped-flow kinetic measurements were performed using an Rx 2000 stopped flow analyzer (Applied Photophysics). Mixtures of 1.50 μL […] (25 μM) and solutions of BME at 0.54 mM, 1.09 mM, 1.64 mM, 2.18 mM, and 2.73 mM concentrations.
The reaction was monitored by following the absorbance at 260 nm and plots were fitted to a simple exponential decay function using Originlab software (version 8.0.). The observed pseudo first order constant at each concentration of BME was extracted from the equation and plotted against the concentration of BME. The second rate constant of the reaction is derived from the slope of the curve and was 182±6 M^−1s^−1. All experiments were carried out at 25° C. by triplicate.

[4] = test system: NF-κB/p65 in THP-1 macrophages; assay: LPS-induced NF-κB/p65 subcellular localization, immunofluorescence and epifluorescence microscopy; format: cell-based, human
Source text: Nuclear factor kappa B (NF-κB) represents a family of pro-inflammatory transcription factors, present in all eukaryotic cells, which regulate inducible expression of wide ranging genes involved in immune responses and cell-cycle regulation. Activation of NF-κB is accompanied by nuclear translocation of NF-κB. […] Specifically, FIG. 3 illustrates immunofluorescence and epifluorescence microscopy analysis showing the effect of SANA on LPS-induced NF-κB/p65 subcellular localization in THP-1 macrophages.

[5] = test system: NF-kB-dependent gene expression in THP-1 cells differentiated into macrophages; assay: NF-kB-dependent gene expression in human macrophages (qPCR); format: cell-based; conditions: 100 and 200 uM for 2 hours, then LPS (3 hours)
Method: THP-1 cells were differentiated into macrophages. Cells were then treated with SANA (100 and 200 uM) or Salicylic acid (SA: 100 and 200 uM) for 2 hours. Cells were then stimulated with LPS (1 mg/mL, 3 hours) mRNA was extracted and IL-6, TNF-a and MCP-1 fold change gene expression over control were quantified by qPCR.

[6] = test system: Nrf2/Keap1-dependent gene expression in Hep G2 cells; assay: Phase two enzymes Nrf2/Keap1-dependent gene expression (qPCR); format: cell-based; conditions: Hep G2, five hours, SANA 0.1 mM, Salicylic Acid 0.2. and 5 mM
Method: FIGS. 6 and 7 show induction of phase two enzymes Nrf2/Keap1-dependent gene expression by SANA but not by SA. Hep G2 cells were treated with SANA (0.1 mM) or Salicylic Acid (0.2. and 5 mM) for five hours. mRNA was extracted from the cells and was measured HO-1, GCLM and NQO1 gene expression by qPCR.

[7] = test system: inflammasome in THP-1 cells differentiated into macrophages; assay: Inflammasome inhibition in THP-1 macrophages (LPS + ATP, IL-1b ELISA); format: cell-based, human; conditions: for inhibition of the inflammasome (IL-1b secretion), applied with the second signal: LPS (250 ng/mL, 3 hs.), then together with ATP (5 mM, 45 minutes), SANA 0.05, 0.125 and 0.25 mM, Salicylic acid 0.25 mM; for inhibition of the inflammasome (IL-1b secretion), applied with the first signal: together with LPS (250 ng/mL, 3 hs.), then ATP (5 mM, 45 minutes), SANA 0.05, 0.125 and 0.25, Salicylic acid 0.2.5 mM
Method: In FIGS. 8 and 9 show the inhibition of inflammasome in THP-1 cells differentiated into macrophages (PMA 200 nM, 48 hs.) by SAMA but not by SA when applied together with the first (FIG. 8) or the second (FIG. 9) signal. In FIG. 8 cells were treated with Salicylic acid (0.2.5 mM) or SANA (0.05; 0.125 and 0.25) together with LPS stimulation. The cells were stimulated with LPS (250 ng/mL, 3 hs.) and then with ATP (5 mM, 45 minutes). Supernatant was collected and IL-1b measured by ELISA. Cell viability was assessed by MTT assay. […] In FIG. 9 THP-1 cells were differentiated into macrophages with PMA (200 nM, 48 hs.). Cells were stimulated with LPS (250 ng/mL, 3 hs.) and then with ATP (5 mM, 45 minutes), Together with ATP treatment, cells were then treated with […] (10 uM), Salicylic acid (0.25 mM) or SANA (0.05; 0.125 and 0.25 mM). Supernatant was collected and IL-1b secretion was measured by ELISA. Cell viability was assessed by the MTT assay.

[8] = test system: Il-1b secretion into the peritoneum; assay: LPS-induced Il-1b secretion into the peritoneum in vivo
[9] = test system: HFD-induced obese mice; assay: Insulin resistance in HFD-induced obese mice (glucose tolerance test); format: in vivo; conditions: 100 mg/kg gavage every day during four weeks
Method: Mice under RFD for up to 7 months (mean weight around 40 gr.) were treated with SANA (100 mg/kg; gavage) or phosphate buffer (control) every day during four weeks. The glucose tolerance test were run as per well-known standard procedures.

[10] = target: GAPDH (Homo sapiens, UniProt P04406); assay: GAPDH activity; format: biochemical
Chain of GAPDH (P04406 whole entry, species assumed): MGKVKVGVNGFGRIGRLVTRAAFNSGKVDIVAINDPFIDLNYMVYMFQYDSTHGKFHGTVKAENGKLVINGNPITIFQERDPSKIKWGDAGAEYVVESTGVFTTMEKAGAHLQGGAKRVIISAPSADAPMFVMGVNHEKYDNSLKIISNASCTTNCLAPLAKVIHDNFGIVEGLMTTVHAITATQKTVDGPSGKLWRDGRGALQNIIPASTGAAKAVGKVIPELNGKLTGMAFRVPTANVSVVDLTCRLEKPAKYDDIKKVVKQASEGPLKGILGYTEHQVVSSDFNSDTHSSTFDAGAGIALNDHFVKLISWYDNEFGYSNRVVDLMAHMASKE

[11] = test system: skin allograft, C57BL/6 female mice grafted with skin of C57BL/6 male mice; assay: Skin allograft rejection in mice; format: in vivo; conditions: from one day before until 15 days after transplantation
Method: C57BL/6 female mice were grafted with skin from the tails of C57BL/6 male mice. The skin graft is a small square (1 cm^2) and it was implanted onto the left subscapular region of the female mice. From one day before the transplantation until 15 days after it, the mice were treated daily with SANA. (1.00 mg/kg, by oral gavage; SANA group) or vehicle (Control group). The vehicle used was a solution of Carboxy-Methyl-cellulose 0.5% m/v and Tween 80 0.5% v/v. At the end of the 15th day of administration, allografts were checked every 48/72 hours to assess the condition of the grafted skin. Rejection was diagnosed clinically when the allograft lost more than 50% of its size and/or more than 10% of allograft was necrotic. […] The study followed the protocol described above for FIG. 1, but further included a Salicylate group. C57BL/6 female mice were grafted with skin from the tails of C57BL/6 male mice. The skin graft is a small square (1 cm^2) and it was implanted onto the left subscapular region of the female mice. From one day before the transplantation until 15 days after it, the mice were treated daily with Salicylate (100 mg/kg, by oral gavage; Salicylate group), SANA (100 mg/kg, by oral gavage; SANA group) or vehicle (Control group). The vehicle used was a solution of Carboxy-Methyl-cellulose 0.5% m/v and Tween 80 0.5% v/v. […]

adduct formation with BME (increase of absorption at 360 nm) [1]	adduct formation with GSH (increase of absorption at 360 nm) [2]	inhibition of GAPDH activity [10]	SMILES	second rate constant of the reaction with BME [3]	LPS-induced NF-κB/p65 nuclear translocation ([4]; 0.1 mM, 2 hs before activation with LPS (1 ug/mL))	potency relative to salicylic acid on NF-κB/p65 localization ([4]; SANA 0.1 mM vs salicylic acid 1 mM)	inhibition of NF-kB-dependent gene expression (IL-6, TNF-a and MCP-1 mRNA fold change over control) [5]	induction of Nrf2/Keap1-dependent gene expression (HO-1, GCLM and NQO1) [6]	inhibition of the inflammasome (IL-1b secretion), applied with the second signal [7]	inhibition of the inflammasome (IL-1b secretion), applied with the first signal [7]	LPS-induced Il-1b secretion into the peritoneum [8]	insulin resistance (glucose tolerance test) [9]	survival of grafted skin vs control group ([11]; 1.00 mg/kg by oral gavage daily)	skin allograft rejection vs salicylic acid ([11]; 100 mg/kg by oral gavage daily, Salicylate 100 mg/kg)	LPS-induced NF-κB/p65 subcellular localization, effect compared with SANA 0.1 mM ([4]; 1 mM, LPS (1 ug/mL))
adduct formation	adduct formation	does not inhibit GAPDH activity	O=C(O)c1cc(/C=C/[N+](=O)[O-])ccc1O [SANA, 2-hydroxy-5-(2-nitroethenyl)benzoic acid]	182 ± 6 M⁻¹ s⁻¹	lack of nuclear translocation of NF-κB	significantly more potent than salicylic acid	inhibition of NF-kB-dependent gene expression	induction	potent inhibitor of the inflammasome	potent inhibitor of the inflammasome	decreases	reverses insulin resistance	prolonged survival of grafted skin as compared to a control group	significant reduction in skin allograft rejection compared to salicylic acid	–
–	–	–	O=C(O)c1ccccc1O [salicylic acid, reference compound]	–	–	–	not able to inhibit NF-kB dependent gene expression	not by SA	cannot inhibit	cannot inhibit	–	–	–	–	the same effect

— patent US12280029B2, “Methods of treatment of inflammation related conditions using pluripotent anti-inflammatory and metabolic modulators” (INSTITUT PASTEUR DE MONTEVIDEO, priority 2016, dated 2025)
